Measured values reported in patent publication US11318151B2, “Compound pharmaceutical composition for treating skin inflammatory diseases” (Hefei Industrial Pharmaceutical Institute Co., Ltd., priority 2018, dated 2022).

How the values were obtained:
[1] = test system: Phorbol Ester-Induced Mouse Ear Swelling Model; assay: Phorbol ester-induced mouse ear swelling model; type: in vivo, SPF ICR mice; settings: 6 h after modeling; for Right ear (ear thickness): phorbol ester 5 μg/20 μL/ear, drug 20 μL/ear 30 min before and 15 min after modeling, thickness gauge; for Swelling degree: right minus left ear thickness, drug 20 μL/ear in DMSO 30 min before and 15 min after modeling; for Inhibition rate of the swelling: vs. model group, ear thickness
Method: 1. Therapeutic Effects of the Compound Pharmaceutical Composition of the Disclosure on a Phorbol Ester-Induced Mouse Ear Swelling Model
SPF ICR mice, male, 18-22 g, randomly divided into compound groups with different compound ratios and a model group according to body weight, 10 mice for each group. The test drug is dissolved in a 20 μL solvent of DMSO. The specific group numbers are as follows:
(1) Compound groups with different compound ratios
Tofacitinib:crisaborole=2 mg:2 mg/20 μL (dose ratio=1:1; group a); tofacitinib:crisaborole=2 mg:1 mg/20 μL (dose ratio=2:1; group b); tofacitinib:crisaborole=2 mg:0.5 mg/20 μL (dose ratio=4:1; group c); tofacitinib:crisaborole=2 mg:0.25 mg/20 μL (dose ratio=8:1; group d); tofacitinib:crisaborole=2 mg:0.2 mg/20 μL (dose ratio=10:1; group e); tofacitinib:crisaborole=2 mg:0.125 mg/20 μL (dose ratio=16:1; group f); tofacitinib:crisaborole=1 mg: 2 mg/20 μL (dose ratio=1:2; group g); tofacitinib:crisaborole=0.5 mg:2 mg/20 μL (dose ratio=1:4; group h); tofacitinib:crisaborole=0.25 mg:2 mg/20 μL (dose ratio=1:8; group i); tofacitinib:crisaborole=0.2 mg:2 mg/20 μL (dose ratio=1:10; group j); tofacitinib:crisaborole=0.125 mg:2 mg/20 μL (dose ratio=1:16; group k). (2) Model Group (3) Crisaborole (4 mg/20 ul) (4) Tofacitinib (4 mg/20 ul) (5) Blank group: applying with 20 μL DMSO as a solvent for comparison. Experimental Method:
For the mice of each group, 20 ul (5 μg/20 μL/ear) of phorbol ester is applied to the front and back of the right ear for modeling, and 20 μL solvent medium (acetone) is applied to the left ear; except for the model group, the right ears of the mice in each administration group are applied with corresponding drugs 20 μL/ear 30 minutes before and 15 minutes after modeling, respectively. 6 h after modeling, the ear swelling is measured with a thickness gauge as an indicator of inflammation; then, the animals are sacrificed, the ears are cut and punched with a 6 mm punch, the ear pieces are weighed, and the swelling degree (weight) is calculated.

[2] = test system: atopic dermatitis; settings: topical 2% tofacitinib, clinical phase II; cited from earlier work

Structure (SMILES) | Right ear (ear thickness) [1] | Swelling degree [1] | Inhibition rate of the swelling [1] | itching symptoms in patients [2] | therapeutic effect on atopic dermatitis [2]
N#Cc1ccc(Oc2ccc3c(c2)COB3O)cc1 [Crisaborole, crisaborole] | 43.0 ± 3.7 10^−2 mm | 13.3 ± 3.4^Δ 10^−2 mm | 30.0% |  | 
C[C@@H]1CCN(C(=O)CC#N)C[C@@H]1N(C)c1ncnc2[nH]ccc12 [Tofacitinib, tofacitinib] | 41.6 ± 3.4 10^−2 mm | 12.4 ± 3.2^ΔΔ 10^−2 mm | 34.7% | can improve itching symptoms in patients | a certain therapeutic effect on atopic dermatitis
